Measurements reported in patent US11596632B2, “JAK1 pathway inhibitors for the treatment of gastrointestinal disease” (Incyte Corporation, priority 2018, dated 2023).

What was measured:
JAK2 (a.a. 828-1132) = JAK2 (a.a. 828-1132) (Homo sapiens (Human), UniProt O60674); experiment: In vitro JAK kinase assay (HTRF), JAK2 relative to JAK1; type: biochemical; conditions: IC50 ratio, 1 mM ATP
Experimental: (§1) The catalytic activity of JAK1, JAK2 or JAK3 was assayed by measuring the phosphorylation of a biotinylated peptide. The phosphorylated peptide was detected by homogenous time resolved fluorescence (HTRF). […] Reactions are carried out at room temperature for 1 hour and then stopped with 20 μL 45 mM EDTA, 300 nM SA-APC, 6 nM Eu-Py20 in assay buffer (Perkin Elmer, Boston, Mass.). Binding to the Europium labeled antibody takes place for 40 minutes and HTRF signal was measured on a Fusion plate reader (Perkin Elmer, Boston, Mass.).

[1] = molecular target: human JAK1 (a.a. 837-1142) (Homo sapiens (Human), UniProt P23458); experiment: In vitro JAK kinase assay (HTRF), JAK1; type: biochemical; conditions: 1 mM ATP
Experimental: as §1

[2] = system: oxazolone-induced colitis in BALB/c mice; conditions: published results (Beattie et al); cited from earlier work

human JAK1 (a.a. 837-1142), sequence (P23458 837-1142): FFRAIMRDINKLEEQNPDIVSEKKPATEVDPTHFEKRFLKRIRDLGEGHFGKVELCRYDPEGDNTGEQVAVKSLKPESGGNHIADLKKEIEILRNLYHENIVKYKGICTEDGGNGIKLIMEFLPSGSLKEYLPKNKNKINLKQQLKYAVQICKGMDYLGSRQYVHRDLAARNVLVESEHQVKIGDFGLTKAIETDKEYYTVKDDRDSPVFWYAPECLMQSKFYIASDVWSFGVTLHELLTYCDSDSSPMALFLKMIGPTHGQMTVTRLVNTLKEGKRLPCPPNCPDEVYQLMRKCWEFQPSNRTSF
JAK2 (a.a. 828-1132), sequence (O60674 828-1132): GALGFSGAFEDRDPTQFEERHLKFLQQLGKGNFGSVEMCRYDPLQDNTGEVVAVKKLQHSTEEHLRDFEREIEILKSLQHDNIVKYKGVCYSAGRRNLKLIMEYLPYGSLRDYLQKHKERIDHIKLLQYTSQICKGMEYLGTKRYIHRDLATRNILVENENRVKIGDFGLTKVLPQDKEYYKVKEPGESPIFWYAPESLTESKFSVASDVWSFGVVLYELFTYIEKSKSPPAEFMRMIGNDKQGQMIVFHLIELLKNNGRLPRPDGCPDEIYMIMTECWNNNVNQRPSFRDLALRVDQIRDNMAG

Compound | JAK2/JAK1 (JAK2 (a.a. 828-1132)) | IC50 [1] | effect on oxazolone-induced colitis [2]
N#CCC(C1CCN(c2cccc(Cl)n2)C1)n1cc(-c2ncnc3[nH]ccc23)cn1 (single isomer, unassigned) [Compound 6, 3-[1-(6-chloropyridin-2-yl)pyrrolidin-3-yl]-3-[4-(7H-pyrrolo[2,3-d]pyrimidin-4-yl)-1H-pyrazol-1-yl]propanenitrile] | >10 | < 10 nM | –
N#CCC1(n2cc(-c3ncnc4[nH]ccc34)cn2)CN(C2CCN(C(=O)Nc3ccc(F)cc3C(F)(F)F)CC2)C1 [Compound 2, 4-{3-(Cyanomethyl)-3-[4-(7H-pyrrolo[2,3-d]pyrimidin-4-yl)-1H-pyrazol-1-yl]azetidin-1-yl}-N-[4-fluoro-2-(trifluoromethyl)phenyl]piperidine-1-carboxamide] | >10 | < 10 nM | –
N#CCC1(n2cc(-c3ncnc4[nH]ccc34)cn2)CN(C2CCN(C(=O)c3ccnc(C(F)(F)F)n3)CC2)C1 [Compound 3, [3-[4-(7H-pyrrolo[2,3-d]pyrimidin-4-yl)-1H-pyrazol-1-yl]-1-(1-{[2-(trifluoromethyl)pyrimidin-4-yl]carbonyl}piperidin-4-yl)azetidin-3-yl]acetonitrile] | >10 | < 10 nM | –
C[C@@H](O)c1nc2cnc3ccsc3c2n1[C@H]1CC[C@H](CC#N)OC1 [Compound 5, ((2R,5S)-5-{2-[(1R)-1-hydroxyethyl]-1H-imidazo[4,5-d]thieno[3,2-b]pyridin-1-yl}tetrahydro-2H-pyran-2-yl)acetonitrile] | >10 | < 100 nM | –
N#CCC(C1CCN(c2nc3cccnc3o2)C1)n1cc(-c2ncnc3[nH]ccc23)cn1 (stereo not drawn) [Compound 7, 3-(1-[1,3]oxazolo[5,4-b]pyridin-2-ylpyrrolidin-3-yl)-3-[4-(7H-pyrrolo[2,3-d]pyrimidin-4-yl)-1H-pyrazol-1-yl]propanenitrile] | >10 | < 10 nM | –
N#CCC(CN1CCN(C(=O)c2ccc(C#N)cc2F)CC1)n1ccc(-c2ncnc3[nH]ccc23)c1 (stereo not drawn) [Compound 9, 4-[(4-{3-cyano-2-[3-(7H-pyrrolo[2,3-d]pyrimidin-4-yl)-1H-pyrrol-1-yl]propyl}piperazin-1-yl)carbonyl]-3-fluorobenzonitrile] | >10 | < 10 nM | –
N#CC[C@]1(n2cc(-c3ncnc4[nH]ccc34)cn2)C[C@H](N2CCN(C(=O)c3ccnc(C(F)(F)F)n3)CC2)C1 [Compound 10, [trans-1-[4-(7H-pyrrolo[2,3-d]pyrimidin-4-yl)-1H-pyrazol-1-yl]-3-(4-{[2-(trifluoromethyl)pyrimidin-4-yl]carbonyl}piperazin-1-yl)cyclobutyl]acetonitrile] | >10 | < 10 nM | –
N#CC[C@]1(n2cc(-c3ncnc4[nH]ccc34)cn2)C[C@H](N2CCC(Oc3cc(CN4CC(O)C4)cc(C(F)(F)F)n3)CC2)C1 [Compound 11, {trans-3-(4-{[4-[(3-hydroxyazetidin-1-yl)methyl]-6-(trifluoromethyl)pyridin-2-yl]oxy}piperidin-1-yl)-1-[4-(7H-pyrrolo[2,3-d]pyrimidin-4-yl)-1H-pyrazol-1-yl]cyclobutyl}acetonitrile] | >10 | < 10 nM | –
N#CC[C@]1(n2cc(-c3ncnc4[nH]ccc34)cn2)C[C@H](N2CCC(Oc3cc(CN4CCC[C@H]4CO)cc(C(F)(F)F)n3)CC2)C1 [Compound 12, {trans-3-(4-{[4-{[(2S)-2-(hydroxymethyl)pyrrolidin-1-yl]methyl}-6-(trifluoromethyl)pyridin-2-yl]oxy}piperidin-1-yl)-1-[4-(7H-pyrrolo[2,3-d]pyrimidin-4-l)-1H-pyrazol-1-yl]cyclobutyl}acetonitrile] | >10 | < 10 nM | –
N#CC[C@]1(n2cc(-c3ncnc4[nH]ccc34)cn2)C[C@H](N2CCC(Oc3cc(CN4CCC[C@@H]4CO)cc(C(F)(F)F)n3)CC2)C1 [Compound 13, {trans-3-(4-{[4-{[(2R)-2-(hydroxymethyl)pyrrolidin-1-yl]methyl}-6-(trifluoromethyl)pyridin-2-yl]oxy}piperidin-1-yl)-1-[4-(7H-pyrrolo[2,3-d]pyrimidin-4-yl)-1H-pyrazol-1-yl]cyclobutyl}acetonitrile] | >10 | < 10 nM | –
N#CCC1(n2cc(-c3ncnc4[nH]ccc34)cn2)CN([C@H]2CC[C@@H](Oc3cc(CCO)nc(C(F)(F)F)n3)CC2)C1 [Compound 18, {1-(cis-4-{[6-(2-hydroxyethyl)-2-(trifluoromethyl)pyrimidin-4-yl]oxy}cyclohexyl)-3-[4-(7H-pyrrolo[2,3-d]pyrimidin-4-yl)-1H-pyrazol-1-yl]azetidin-3-yl}acetonitrile] | >10 | < 10 nM | –
CCNCc1cc(O[C@H]2CC[C@@H](N3CC(CC#N)(n4cc(-c5ncnc6[nH]ccc56)cn4)C3)CC2)nc(C(F)(F)F)c1 [Compound 19, {1-(cis-4-{[4-[(ethylamino)methyl]-6-(trifluoromethyl)pyridin-2-yl]oxy}cyclohexyl)-3-[4-(7H-pyrrolo[2,3-d]pyrimidin-4-yl)-1H-pyrazol-1-yl]azetidin-3-yl}acetonitrile] | >10 | < 10 nM | –
CC(C)(O)c1cc(O[C@H]2CC[C@@H](N3CC(CC#N)(n4cc(-c5ncnc6[nH]ccc56)cn4)C3)CC2)nc(C(F)(F)F)c1 [Compound 20, {1-(cis-4-{[4-(1-hydroxy-1-methylethyl)-6-(trifluoromethyl)pyridin-2-yl]oxy}cyclohexyl)-3-[4-(7H-pyrrolo[2,3-d]pyrimidin-4-yl)-1H-pyrazol-1-yl]azetidin-3-yl}acetonitrile] | >10 | < 10 nM | –
N#CCC1(n2cc(-c3ncnc4[nH]ccc34)cn2)CN([C@H]2CC[C@@H](Oc3cc(CN4CC[C@@H](O)C4)cc(C(F)(F)F)n3)CC2)C1 [Compound 21, {1-(cis-4-{[4-{[(3R)-3-hydroxypyrrolidin-1-yl]methyl}-6-(trifluoromethyl)pyridin-2-yl]oxy}cyclohexyl)-3-[4-(7H-pyrrolo[2,3-d]pyrimidin-4-yl)-1H-pyrazol-1-yl]azetidin-3-yl}acetonitrile] | >10 | < 10 nM | –
N#CCC1(n2cc(-c3ncnc4[nH]ccc34)cn2)CN([C@H]2CC[C@@H](Oc3cc(CN4CC[C@H](O)C4)cc(C(F)(F)F)n3)CC2)C1 [Compound 22, {1-(cis-4-{[4-{[(3S)-3-hydroxypyrrolidin-1-yl]methyl}-6-(trifluoromethyl)pyridin-2-yl]oxy}cyclohexyl)-3-[4-(7H-pyrrolo[2,3-d]pyrimidin-4-yl)-1H-pyrazol-1-yl]azetidin-3-yl}acetonitrile] | >10 | < 10 nM | –
C[C@@H](CO)NCc1cc(OC2CCN([C@H]3C[C@](CC#N)(n4cc(-c5ncnc6[nH]ccc56)cn4)C3)CC2)nc(C(F)(F)F)c1 [Compound 23] | >10 | < 10 nM | –
C[C@@H](O)CNCc1cc(OC2CCN([C@H]3C[C@](CC#N)(n4cc(-c5ncnc6[nH]ccc56)cn4)C3)CC2)nc(C(F)(F)F)c1 [Compound 24, {trans-3-(4-{[4-({[(2R)-2-hydroxypropyl]amino}methyl)-6-(trifluoromethyl)pyridin-2-yl]oxy}piperidin-1-yl)-1-[4-(7H-pyrrolo[2,3-d]pyrimidin-4-yl)-1H-pyrazol-1-yl]cyclobutyl}acetonitrile] | >10 | < 10 nM | –
C[C@H](O)CNCc1cc(OC2CCN([C@H]3C[C@](CC#N)(n4cc(-c5ncnc6[nH]ccc56)cn4)C3)CC2)nc(C(F)(F)F)c1 [Compound 25, {trans-3-(4-{[4-({[(2S)-2-hydroxypropyl]amino}methyl)-6-(trifluoromethyl)pyridin-2-yl]oxy}piperidin-1-yl)-1-[4-(7H-pyrrolo[2,3-d]pyrimidin-4-yl)-1H-pyrazol-1-yl]cyclobutyl}acetonitrile] | >10 | < 10 nM | –
N#CC[C@]1(n2cc(-c3ncnc4[nH]ccc34)cn2)C[C@H](N2CCC(Oc3cc(CCO)cc(C(F)(F)F)n3)CC2)C1 [Compound 26, {trans-3-(4-{[4-(2-hydroxyethyl)-6-(trifluoromethyl)pyridin-2-yl]oxy}piperidin-1-yl)-1-[4-(7H-pyrrolo[2,3-d]pyrimidin-4-yl)-1H-pyrazol-1-yl]cyclobutyl}acetonitrile] | >10 | < 10 nM | –
C[C@@H]1CCN(C(=O)CC#N)C[C@@H]1N(C)c1ncnc2[nH]ccc12 [tofacitinib] | – | – | inhibits oxazolone-induced colitis
